In publication PMC4562501 (Anesthesiology, 2014):
Like-named read-outs stand apart in the source and are kept apart here.

Key:
clinical = settings: both, human, in vivo, po, oral methadone; for Tmax: Plasma Tmax; for half-life: Plasma t½
[1] = Intravenous methadone pharmacokinetics, protocol 2; format: in vivo; settings: both, human, plasma
P-gp [2] = settings: tariquidar 6 mg/kg, humans; cited from earlier work
[3] = oral methadone; for Plasma Cmax/dose: control session, n=16, mean ± SD
healthy volunteers [4] = test: Thermal analgesia; settings: oral methadone
P-gp [5] = settings: Caco-2 cells; cited from earlier work
healthy volunteers [6] = test: Miosis; format: in vivo, human; settings: IV methadone
healthy volunteers [7] = test: Thermal analgesia; format: in vivo, human; settings: IV methadone
healthy volunteers [8] = test: Miosis; format: in vivo, human
[9] = racemic methadone; cited from earlier work
P-gp [10] = settings: well-known P-gp substrate, for comparison; cited from earlier work

CCC(=O)C(C[C@H](C)N(C)C)(c1ccccc1)c1ccccc1 [S-Methadone, S-methadone]
Tmax (clinical; control): 2 ± 0.5 h | Tmax (clinical; cyclosporine-treated): 4.6 ± 2.3 h | AUC(0-t) [1]: 282 ± 68 ng·h/mL | AUC(0-t) ([1]; 0.1 mg/kg): 276 ± 47 ng·h/mL | Cmax ([1]; 0.1 mg/kg): 32.2 ± 7.9 ng/mL

COc1cc2c(cc1OC)CN(CCc1ccc(NC(=O)c3cc(OC)c(OC)cc3NC(=O)c3cnc4ccccc4c3)cc1)CC2 [tariquidar]
Increase in brain concentrations of (R)-[11C]verapamil (P-gp [2]): 2.5 fold | Increase in brain concentrations of [11C]N-desmethyl-loperamide (P-gp [2]): 4 fold

CC=C1N(C)C(C)CC1(c1ccccc1)c1ccccc1 (stereo not shown) [S-EDDP, 2-ethylidene-1,5-dimethyl-3,3-diphenylpyrrolidine]
Plasma AUC0-96/dose ([3]; control): 11.6 ± 3.2 ng·h/mL/mg | Plasma Tmax ([3]; control): 2.3 ± 0.7 h | Plasma t½ ([3]; control): 87 ± 25 h | Urine %dose eliminated (0-24 h) ([3]; control): 7.2 ± 3.8 %dose | Urine %dose eliminated (0-96 h) ([3]; control): 15 ± 6 %dose | Plasma Cmax/dose [3]: 0.35 ± 0.17 ng/mL/mg | Plasma AUC0-96/dose ([3]; cyclosporine-treated): 14.4 ± 3.5 ng·h/mL/mg | Plasma t½ ([3]; cyclosporine-treated): 102 ± 39 h | Urine %dose eliminated (0-24 h) ([3]; cyclosporine-treated): 7.4 ± 3.7 %dose | Urine %dose eliminated (0-96 h) ([3]; cyclosporine-treated): 16 ± 8 %dose | Plasma AUC0-96 (EDDP/methadone) ratio (cyclosporine/control) ([3]; geometric mean and 90% confidence interval): 1.15 (1.04, 1.27)

CCC(=O)C(CC(C)N(C)C)(c1ccccc1)c1ccccc1 (stereo not shown) [methadone]
Maximally tolerated temperature (method of limits) (healthy volunteers [4]): increased the maximally tolerated temperature | Verbal analog ratings to discrete temperatures (healthy volunteers [4]): small and brief analgesic effect | Reduction of rhodamine transport (P-gp [5]): 25% | Miotic response (average) (healthy volunteers [6]): 2.5 mm | Peak miosis (healthy volunteers [6]; controls): 3.1 ± 1.0 mm | Peak miosis (healthy volunteers [6]; cyclosporine-treated subjects): 3.2 ± 0.8 mm | Analgesic effect (thermal) (healthy volunteers [7]): minimal analgesic effects | Miotic response (average) (healthy volunteers [8]; oral methadone): 2 mm | Peak miosis (dose-adjusted) (healthy volunteers [8]; oral methadone, controls): 1.4 ± 0.4 mm/mg | Peak miosis (dose-adjusted) (healthy volunteers [8]; oral methadone, cyclosporine-treated subjects): 1.3 ± 0.5 mm/mg | Median minimal effective (postoperative) analgesia threshold [9]: 31 ng/mL

CC=C1N(C)C(C)CC1(c1ccccc1)c1ccccc1 (stereo not shown) [EDDP, 2-ethylidene-1,5-dimethyl-3,3-diphenylpyrrolidine]
Increase of EDDP/methadone AUC ratio by cyclosporine [3]: 11-15%

CCC(=O)C(C[C@@H](C)N(C)C)(c1ccccc1)c1ccccc1 [R-Methadone, R-methadone]
Plasma concentration at which miosis was detectable (average) (healthy volunteers [8]; plasma R-methadone): 5 ng/mL

CC=C1N(C)C(C)CC1(c1ccccc1)c1ccccc1 (stereo not shown) [R-EDDP, 2-ethylidene-1,5-dimethyl-3,3-diphenylpyrrolidine]
Plasma AUC0-96/dose ([3]; control): 6.7 ± 1.6 ng·h/mL/mg | Urine %dose eliminated (0-24 h) ([3]; control): 4.2 ± 2.3 %dose | Urine %dose eliminated (0-96 h) ([3]; control): 9 ± 4 %dose | Plasma Cmax/dose [3]: 0.24 ± 0.09 ng/mL/mg | Plasma AUC0-96/dose ([3]; cyclosporine-treated): 8.2 ± 1.9 ng·h/mL/mg | Urine %dose eliminated (0-24 h) ([3]; cyclosporine-treated): 4.2 ± 1.8 %dose | Urine %dose eliminated (0-96 h) ([3]; cyclosporine-treated): 10 ± 4 %dose | Tmax (clinical; control): 2.5 ± 0.5 h | Tmax (clinical; cyclosporine-treated): 4.1 ± 1.1 h | half-life (clinical; control): 57 ± 22 h | half-life (clinical; cyclosporine-treated): 73 ± 38 h

CN(C)C(=O)C(CCN1CCC(O)(c2ccc(Cl)cc2)CC1)(c1ccccc1)c1ccccc1 [loperamide]
Transport ratio (P-gp [10]): exceeds 10
